The results in this text go back to paper PMC7827406, “Structure–Activity Relationship (SAR) Study of Spautin-1 to Entail the Discovery of Novel NEK4 Inhibitors” (International Journal of Molecular Sciences, 2021).

Like-named read-outs stand apart in the source and are kept apart here.

Assay in all cases: biochemical
What all share (design): Eurofins KinaseProfiler full panel at Km ATP, residual kinase activity (%) relative to DMSO

For test [1], the target named is T1, Mer(h) (Homo sapiens, UniProt Q12866).
T1 construct: gene MERTK
T1 sequence (Q12866 1-999): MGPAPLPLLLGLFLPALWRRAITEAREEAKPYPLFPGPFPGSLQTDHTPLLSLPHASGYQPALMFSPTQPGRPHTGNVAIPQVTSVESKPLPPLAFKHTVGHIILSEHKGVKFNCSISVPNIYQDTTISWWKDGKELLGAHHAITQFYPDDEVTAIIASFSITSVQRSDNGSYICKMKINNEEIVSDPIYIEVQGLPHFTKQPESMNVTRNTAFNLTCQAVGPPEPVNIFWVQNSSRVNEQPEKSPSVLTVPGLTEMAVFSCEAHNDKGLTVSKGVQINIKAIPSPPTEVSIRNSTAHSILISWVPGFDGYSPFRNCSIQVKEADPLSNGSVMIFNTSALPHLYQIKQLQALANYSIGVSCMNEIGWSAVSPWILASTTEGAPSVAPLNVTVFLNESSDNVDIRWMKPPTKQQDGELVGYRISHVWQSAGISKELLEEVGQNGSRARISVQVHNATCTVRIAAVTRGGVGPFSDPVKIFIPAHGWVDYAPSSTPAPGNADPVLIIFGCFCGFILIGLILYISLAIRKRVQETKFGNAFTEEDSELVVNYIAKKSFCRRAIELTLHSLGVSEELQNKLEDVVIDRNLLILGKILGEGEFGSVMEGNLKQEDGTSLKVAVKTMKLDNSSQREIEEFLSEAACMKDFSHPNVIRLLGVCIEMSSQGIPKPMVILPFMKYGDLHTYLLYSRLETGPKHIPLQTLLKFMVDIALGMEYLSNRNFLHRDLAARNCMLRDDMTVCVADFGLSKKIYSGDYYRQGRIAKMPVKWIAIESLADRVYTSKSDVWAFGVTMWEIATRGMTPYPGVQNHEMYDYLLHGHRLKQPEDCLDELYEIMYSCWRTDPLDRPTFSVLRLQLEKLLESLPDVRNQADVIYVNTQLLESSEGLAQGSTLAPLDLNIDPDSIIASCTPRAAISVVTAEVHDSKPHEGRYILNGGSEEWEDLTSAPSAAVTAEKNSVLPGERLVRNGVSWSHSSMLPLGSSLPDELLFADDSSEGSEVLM
Summed up: (§1)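 Compounds screened at 10 µM in radiometric kinase activity assays at Km ATP, reported as remaining kinase activity (%). A KINOMEscan competition-binding screen at 10 µM measured DNA-tagged kinase retained on immobilized active-site ligand by qPCR.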

Test [2] concerns the target T2, SAPK2b(h) (Homo sapiens, UniProt Q15759).
T2 construct: gene MAPK11
In outline: as §1

For test [3], the target named is T3, ULK2(h) (Homo sapiens, UniProt Q8IYT8).
T3 sequence (Q8IYT8 1-1036): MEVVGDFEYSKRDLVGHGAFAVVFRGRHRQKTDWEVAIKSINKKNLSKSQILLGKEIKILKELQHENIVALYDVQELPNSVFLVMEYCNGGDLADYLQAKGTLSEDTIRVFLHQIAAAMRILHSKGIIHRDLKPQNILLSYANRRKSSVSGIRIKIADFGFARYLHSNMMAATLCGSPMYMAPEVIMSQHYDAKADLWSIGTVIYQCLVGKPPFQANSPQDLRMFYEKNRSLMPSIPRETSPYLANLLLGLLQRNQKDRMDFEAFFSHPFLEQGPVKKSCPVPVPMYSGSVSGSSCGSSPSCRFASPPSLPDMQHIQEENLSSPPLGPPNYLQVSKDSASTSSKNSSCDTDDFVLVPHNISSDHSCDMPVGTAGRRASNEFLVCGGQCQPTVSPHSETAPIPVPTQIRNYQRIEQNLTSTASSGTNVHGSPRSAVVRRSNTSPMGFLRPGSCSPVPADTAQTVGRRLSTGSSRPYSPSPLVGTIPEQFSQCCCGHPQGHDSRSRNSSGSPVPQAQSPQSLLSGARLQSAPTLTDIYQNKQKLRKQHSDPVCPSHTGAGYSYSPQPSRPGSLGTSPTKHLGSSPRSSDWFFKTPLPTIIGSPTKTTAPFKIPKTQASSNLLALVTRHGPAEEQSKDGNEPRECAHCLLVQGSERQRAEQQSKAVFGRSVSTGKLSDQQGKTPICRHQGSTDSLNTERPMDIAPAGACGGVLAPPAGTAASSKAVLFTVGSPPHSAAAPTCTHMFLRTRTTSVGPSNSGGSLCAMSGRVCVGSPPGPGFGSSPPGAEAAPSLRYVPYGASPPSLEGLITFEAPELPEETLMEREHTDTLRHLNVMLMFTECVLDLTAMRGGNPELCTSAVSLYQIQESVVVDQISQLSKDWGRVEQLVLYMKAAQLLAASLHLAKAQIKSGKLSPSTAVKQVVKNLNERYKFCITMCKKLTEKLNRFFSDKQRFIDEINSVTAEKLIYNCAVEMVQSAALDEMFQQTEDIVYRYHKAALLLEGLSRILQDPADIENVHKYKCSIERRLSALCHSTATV
In outline:
as §1

In test [4] the target is PAK3(h) (Homo sapiens, UniProt O75914). Summed up: as §1
PAK3(h), sequence (O75914 whole entry): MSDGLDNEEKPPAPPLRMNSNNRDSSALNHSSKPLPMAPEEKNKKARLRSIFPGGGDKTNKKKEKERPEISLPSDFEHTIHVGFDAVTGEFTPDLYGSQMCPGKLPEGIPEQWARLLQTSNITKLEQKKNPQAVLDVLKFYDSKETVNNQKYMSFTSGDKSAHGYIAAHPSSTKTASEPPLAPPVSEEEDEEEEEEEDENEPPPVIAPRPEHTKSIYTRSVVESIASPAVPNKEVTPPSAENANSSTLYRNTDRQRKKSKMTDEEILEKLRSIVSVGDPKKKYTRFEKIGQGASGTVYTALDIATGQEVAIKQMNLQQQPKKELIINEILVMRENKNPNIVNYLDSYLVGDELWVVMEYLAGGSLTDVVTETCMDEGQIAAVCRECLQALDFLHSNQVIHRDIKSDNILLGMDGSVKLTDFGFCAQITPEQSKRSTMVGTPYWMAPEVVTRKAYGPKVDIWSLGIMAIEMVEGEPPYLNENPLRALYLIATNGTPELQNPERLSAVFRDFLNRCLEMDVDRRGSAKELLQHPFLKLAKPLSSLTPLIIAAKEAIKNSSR
Test [5] deals with T4, IR(h) (Homo sapiens, UniProt P06213).
T4 construct: gene INSR
T4 sequence (P06213 whole entry): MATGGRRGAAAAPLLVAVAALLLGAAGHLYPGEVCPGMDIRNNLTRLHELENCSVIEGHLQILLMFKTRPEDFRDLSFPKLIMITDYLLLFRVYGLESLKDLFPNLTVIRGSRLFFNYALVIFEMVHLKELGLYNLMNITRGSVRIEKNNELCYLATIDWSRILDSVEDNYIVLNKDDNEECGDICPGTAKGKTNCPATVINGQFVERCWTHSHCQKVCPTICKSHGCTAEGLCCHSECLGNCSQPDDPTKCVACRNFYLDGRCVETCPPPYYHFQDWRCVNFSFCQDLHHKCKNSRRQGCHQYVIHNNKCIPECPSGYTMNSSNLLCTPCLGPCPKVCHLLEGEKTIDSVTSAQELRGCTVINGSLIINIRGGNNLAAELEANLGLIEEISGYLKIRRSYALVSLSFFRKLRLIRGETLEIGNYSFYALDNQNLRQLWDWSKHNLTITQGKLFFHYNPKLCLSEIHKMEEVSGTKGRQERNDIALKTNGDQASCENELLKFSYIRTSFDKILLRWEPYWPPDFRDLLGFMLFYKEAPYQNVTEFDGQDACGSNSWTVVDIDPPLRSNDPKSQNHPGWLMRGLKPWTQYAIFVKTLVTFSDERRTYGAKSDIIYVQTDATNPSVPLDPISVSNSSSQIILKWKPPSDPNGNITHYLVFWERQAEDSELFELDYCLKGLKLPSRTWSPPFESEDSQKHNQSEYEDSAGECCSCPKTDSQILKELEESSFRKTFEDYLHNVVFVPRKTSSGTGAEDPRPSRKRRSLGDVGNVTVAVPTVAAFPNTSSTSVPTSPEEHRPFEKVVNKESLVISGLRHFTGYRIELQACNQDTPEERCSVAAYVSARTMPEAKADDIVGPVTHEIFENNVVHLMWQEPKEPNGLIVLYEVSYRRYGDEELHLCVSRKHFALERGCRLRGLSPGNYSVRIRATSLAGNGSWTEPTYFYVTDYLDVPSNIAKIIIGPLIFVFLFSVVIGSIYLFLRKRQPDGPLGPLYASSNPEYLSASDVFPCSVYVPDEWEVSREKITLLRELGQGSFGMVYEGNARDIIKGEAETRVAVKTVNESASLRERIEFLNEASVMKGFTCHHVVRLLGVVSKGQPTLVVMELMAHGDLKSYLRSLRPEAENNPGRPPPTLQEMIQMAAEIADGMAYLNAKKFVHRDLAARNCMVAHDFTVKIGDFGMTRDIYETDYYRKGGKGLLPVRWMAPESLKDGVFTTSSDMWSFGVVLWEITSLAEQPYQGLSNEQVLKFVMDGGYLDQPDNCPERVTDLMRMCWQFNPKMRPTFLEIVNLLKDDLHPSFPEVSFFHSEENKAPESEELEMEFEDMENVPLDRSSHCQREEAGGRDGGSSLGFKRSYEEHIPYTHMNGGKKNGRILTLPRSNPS
Summed up: as §1

[6] abbreviates: read-out: Residual activity (%) Spautin-1 5aa.
The mark [7] stands for this setting: read-out: Residual activity (%) 5as.
The mark [8] stands for this setting: read-out: Residual activity (%) 5at.
Setting [9] is: read-out: Residual activity (%) 5ay.

T2 sequence (Q15759 whole entry): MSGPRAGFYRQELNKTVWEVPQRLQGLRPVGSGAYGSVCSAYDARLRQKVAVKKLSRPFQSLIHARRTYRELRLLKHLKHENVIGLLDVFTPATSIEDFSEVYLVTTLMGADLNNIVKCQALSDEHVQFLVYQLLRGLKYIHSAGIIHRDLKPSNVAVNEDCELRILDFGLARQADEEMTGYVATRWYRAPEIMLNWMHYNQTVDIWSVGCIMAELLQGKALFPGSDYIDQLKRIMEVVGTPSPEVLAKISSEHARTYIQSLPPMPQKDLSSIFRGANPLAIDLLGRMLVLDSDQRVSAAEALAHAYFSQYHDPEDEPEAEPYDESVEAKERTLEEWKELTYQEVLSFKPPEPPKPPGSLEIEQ

Consider `Fc1ccc(CNc2ncnc3ccc(F)cc23)cc1` [5aa, 6-Fluoro-N-(4-fluorobenzyl)-4-Quinazolinamine], for which the remaining activity at 10 µM in test [1] (setting [6]) is 83%; in test [2] (setting [6]), 79%; in test [3] (setting [6]), 101%; in test [4] (setting [6]) it was 96%; in test [5] (setting [6]), 73%.

Take `Fc1ccc(CCNc2ncnc3ccc(F)cc23)cc1` [5as, 6-Fluoro-N-[2-(4-Fluorophenyl)Ethyl]-4-Quinazolinamine]: the remaining activity at 10 µM is 83% in test [1] (setting [7]); 95% in test [2] (setting [7]); 93% in test [3] (setting [7]); 107% in test [4] (setting [7]); 88% in test [5] (setting [7]).

In the case of `Fc1ccc2ncnc(NCCc3ccc(Cl)cc3)c2c1` [5at, N-[2-(4-Chlorophenyl)Ethyl]-6-Fluoro-4-Quinazolinamine], the remaining activity at 10 µM in test [1] (setting [8]) came to 89%; in test [2] (setting [8]) it was 84%; in test [3] (setting [8]) it was 94%; in test [4] (setting [8]) it was 93%; in test [5] (setting [8]), 70%.

Consider `COc1ccc2ncnc(Nc3cccc(F)c3)c2c1` [5ay, N-(3-Fluorophenyl)-6-Methoxy-4-Quinazolinamine], for which the remaining activity at 10 µM was found to be 68% in test [1] (setting [9]); 83% in test [2] (setting [9]); 97% in test [3] (setting [9]); 99% in test [4] (setting [9]); 98% in test [5] (setting [9]).
